The boiling point is the temperature at which the vapour pressure of the liquid equals the pressure above it. Broadly, the melting point is the temperature, or range, at which the solid turns liquid.

Consider `C1CCNCC1`, for which the boiling point worked out at 106 °C, the log10 Henry constant (atm·m³/mol) is -5.35, the log10 Koa was found to be 4.04 and the log10 vapour pressure (mmHg) was 1.51. Also, the melting point was -7 °C and the ready biodegradability result is recorded as “readily biodegradable”.

On to `CCOC(=O)c1cncn1C(C)c1ccccc1` (stereo not drawn), for which the melting point amounted to 67 °C.

For `Cc1cc(=O)cc(C)o1`, the boiling point was 251 °C and the melting point came to 132 °C.

`Cc1cccc(Oc2cccc(C)c2)c1` had a boiling point of 284 °C.

As for `Cc1ccc(CCl)c(C)c1`, the boiling point was 216 °C.

`CCOc1ccc(C(C)(C)COCc2cccc(Oc3ccccc3)c2)cc1`: the melting point was 37 °C.

`CCOP(=S)(OCC)SCSc1ccc(Cl)cc1` had a log10 Koc (L/kg) of 4.66 and a log10 vapour pressure (mmHg) of -6.52.

In turn, `CC(C)(C#N)O[C@@H]1O[C@H](CO)[C@@H](O)[C@H](O)[C@H]1O` had a melting point of 145 °C.

In the case of `O=C(Cl)CCCCCCCCC(=O)Cl`, the melting point is -2.5 °C.

`N#Cc1cc(I)c([O-])c(I)c1.[Na+]` had a melting point of 360 °C.

`CCCCCCCCCCCCCCCCCC(=O)OCCCCCCCCCCCCCCCC` returned a melting point of 57 °C.

On to `ClC1=CCCCC1`, for which the boiling point turned out to be 142 °C.

Molecule `C=C(C)C(=O)Nc1ccc(Cl)c(Cl)c1` returned a melting point of 128 °C.

`Cc1nccs1` registered a boiling point of 128 °C.

Consider `FC(F)(F)c1ccc(Br)cc1`, for which the boiling point is 160 °C.

Consider `CCOP(=S)(OCC)Oc1ccc(S(C)=O)cc1` (stereo not drawn), for which the log10 Koc (L/kg) came out at 2.52 and the log10 vapour pressure (mmHg) was -4.3.

As to `CCN(CC)C(C)=O`, the boiling point was found to be 186 °C and the log10 Koc (L/kg) is 1.84.

In the case of `Cc1cc(C)c(C)cn1`, the boiling point stood at 188 °C.

In turn, `C=C1/C(=C\C=C2/CCC[C@]3(C)[C@@H]([C@H](C)CCCC(C)(C)O)CC[C@@H]23)C[C@@H](O)C[C@@H]1O` returned a melting point of 115 °C.

As to `FC(F)(F)C(F)(F)C(F)(F)C(F)(F)C(F)(F)C(F)(F)C(F)(F)C(F)(F)C(F)(F)I`, the boiling point amounted to 181 °C.

`CCCCCCCCCCCCCCCCCCNC` had a melting point of 44 °C.

As for `Cc1cc(N(C)C)ccc1N=Nc1ccccc1`, the melting point came to 68 °C.

Molecule `O=C1c2ccccc2-c2c(O)cccc21` registered a melting point of 250 °C.

In turn, `CSc1ccc2c(c1)N(CCC1CCCCN1C)c1ccccc1S2` (stereo not drawn) showed a melting point of 73 °C.

Turning to `CCCC(O)/C=C/C=C/C=C/C#CC#CCCCO` (stereo not drawn), the melting point was 54 °C.

As to `CC1CCC(O)CC1` (stereo not drawn), the boiling point was 172 °C.

Take `CC1=C(O)C(=O)C(C)O1` (stereo not drawn): the melting point was found to be 80.5 °C.

Molecule `C=C(C)Br` had a boiling point of 48.4 °C and a melting point of -126 °C.

Molecule `CCCCCCCCCCCCCCCC[N+](C)(C)C.[Br-]` registered a melting point of 240 °C.

With `CC(=O)Cc1ccco1`, the boiling point is 180 °C and the melting point worked out at 29 °C.

As for `Cc1ccc2cc3c(ccc4ccccc43)c3c2c1CC3`, the log10 Koc (L/kg) came to 6.1, the log10 vapour pressure (mmHg) is -7.37, the melting point was found to be 180 °C and the ready biodegradability result is “not readily biodegradable”.

The molecule `Nc1ccc(S(=O)(=O)Nc2cnc3ccccc3n2)cc1` gave a melting point of 248 °C.

In the case of `COCC(=NOCC(=O)OC)c1cc(Oc2ccc(C(F)(F)F)cc2Cl)ccc1[N+](=O)[O-]`, the melting point was 58 °C.

The molecule `CN(C)C(=S)SC(=S)N(C)C` displayed a melting point of 110 °C.

In turn, `CCCCC(CC)COC(=O)c1ccccc1C(=O)OCC(CC)CCCC` (stereo not drawn) had a boiling point of 384 °C, a log10 Koc (L/kg) of 4.94, a log10 vapour pressure (mmHg) of -6.85 and a melting point of -55 °C. For the same molecule, the ready biodegradability entry is reported as “not readily biodegradable”.

For the molecule `CC=CC(=O)OC(=O)C=CC`, the boiling point stood at 247 °C.

As for `CCCCCCN1CC(C(=O)OC)CC1=O` (stereo not drawn), the melting point amounted to 4 °C.

`CCOCCOC(=O)C=Cc1ccc(OC)cc1` returned a melting point of -25 °C.

Consider `CC(=O)N[C@@H](CS)C(=O)O`, for which the melting point was 110 °C.

`O=C1OC(=Cc2ccccc2)c2ccccc21` displayed a melting point of 100 °C.

`COc1ccccc1[N+](=O)[O-]`: the boiling point is 277 °C, the log10 vapour pressure (mmHg) was -2.44, the melting point came out at 10.5 °C and the ready biodegradability result is reported as “not readily biodegradable”.

Turning to `C#CC(O)(C=CCl)CC` (stereo not drawn), the boiling point is 174 °C and the log10 vapour pressure (mmHg) is -1.

As to `CCCCCOC(=O)c1ccccc1O`, the boiling point worked out at 270 °C.

With `O=C(O)c1cccc(C(=O)O)c1C(=O)O`, the melting point was 200 °C.

With `CC(O)(CCl)CCl`, the boiling point amounted to 174 °C.

As to `COP(=O)(NC(C)=O)SC` (stereo not drawn), the log10 Koc (L/kg) turned out to be 0.3, the log10 vapour pressure (mmHg) was -5.77, the melting point came out at 88 °C and the ready biodegradability entry is reported as “readily biodegradable”.

Take `C1COCOC1`: the boiling point is 106 °C and the melting point is -45 °C.

`CCc1ccccc1O`: the boiling point is 204 °C, the log10 vapour pressure (mmHg) was -0.815 and the melting point came out at 18 °C.

Turning to `CCNc1nc(O)nc(NCC)n1`, the ready biodegradability entry was “not readily biodegradable”.

Molecule `CC(C)(C)NC=O` had a boiling point of 202 °C, a log10 vapour pressure (mmHg) of -0.569 and a melting point of 16 °C.

`NC[C@H](O)C(=O)O`: the melting point turned out to be 235 °C.

The molecule `OCCc1ccccn1` displayed a log10 Koc (L/kg) of 1.45 and a melting point of -7.8 °C.

`CO[C@H]1[C@@H](O)[C@@H](C)O[C@H](O[C@H]2[C@H](Oc3cccc4c(O)c5c(=O)oc6ccc(C)c7c(=O)oc(c34)c5c67)O[C@H](C)[C@H](O)[C@@H]2O)[C@@H]1O` gave a melting point of 185 °C.

As to `Nc1cc(Cl)cc(Cl)c1`, the boiling point amounted to 261 °C, the log10 Koc (L/kg) came to 2.49, the melting point came out at 52 °C and the ready biodegradability result is reported as “not readily biodegradable”.

Molecule `Cc1cc(-c2ccccc2)ccc1N` showed a melting point of 43 °C.

`CCCCNC(=O)NS(=O)(=O)c1ccccc1`: the melting point worked out at 131 °C.

In the case of `CCC(C)c1cccc(C(C)CC)c1O` (stereo not drawn), the boiling point amounted to 258 °C, the melting point was -42 °C and the ready biodegradability entry was “not readily biodegradable”.

These data come from the OPERA property sets (Mansouri et al. 2018).
